Test system: imagoes of the tiger mosquito, Aedes albopictus
Test: noxious-insect repellency test (treated forearm in a cage of tiger mosquitoes, percent repellency from biting marks)
Format: in vivo
Conditions: content 0.05% (wt. %) in 40 wt. % ethanol aqueous solution; an hour after application
Protocol: In each example, the noxious-insect repellency test was conducted as follows:
Test method of noxious-insect repelling effect and durability thereof In order to assess the repelling effect against imagoes of the tiger mosquito, Aedes albopictus, the following test was conducted at a room temperature of 30° C. and a relative humidity of 70% in an air-conditioned room. 10 ml each of test samples was applied to left and right forearms. Each treated forearm was introduced into a wire gauze cage (20 cm L.×15 cm Dia.) containing 50 female and 50 male tiger mosquitoes 5-7 days old after eclosion, for 15 minutes to afford time for biting. The assessment was repeated 30 minutes, 1 hour, 2 hours, 4 hours and 6 hours after the test sample was applied. The number of marks made by biting within each biting time was counted and a percent repellency was calculated using the following formula:
Percent repellency=(X−Y)/X×100 (%)
X: the number of the marks made by biting when the test sample was not applied,
Y: the number of the marks made by biting when the test sample was applied.

Row | Compound | Percent repellency
1 | CC(C)C1CCC(C)C(CO)C1O (stereo not shown) [HMMO, 2-hydroxymethyl-menthol] | 18%

Same assay, conditions: content 0.1% (wt. %) in 40 wt. % ethanol aqueous solution; an hour after application

Row | Compound | Percent repellency
2 | CC(C)C1CCC(C)C(CO)C1O (stereo not shown) [HMMO, 2-hydroxymethyl-menthol] | 48%

Same assay, conditions: content 1% (wt. %) in 40 wt. % ethanol aqueous solution; an hour after application

Row | Compound | Percent repellency
3 | CC(C)C1CCC(C)C(CO)C1O (stereo not shown) [HMMO, 2-hydroxymethyl-menthol] | 78%

Same assay, conditions: content 3% (wt. %) in 40 wt. % ethanol aqueous solution; an hour after application

Row | Compound | Percent repellency
4 | CC(C)C1CCC(C)C(CO)C1O (stereo not shown) [HMMO, 2-hydroxymethyl-menthol] | 92%

Same assay, conditions: lotion or milky lotion containing the compound, tiger mosquito imagoes

Row | Compound | noxious-insect repelling effect and durability (result in words)
5 | CC(C)C1CCC(C)C(CO)C1O (stereo not shown) [HMMO, 2-hydroxymethyl-menthol] | excellent noxious-insect repelling effect and durability
6 | CCCC(O)C1C(O)CCC1CC (stereo not shown) [2-(1-hydroxybutyl)-3-ethyl-cyclopentanol] | excellent noxious-insect repelling effect and durability
7 | CC(O)C1CCCCCC1=O (stereo not shown) [2-(1-hydroxyethyl)-cycloheptanone] | excellent noxious-insect repelling effect and durability
8 | OCC1CCCCCCC1O (stereo not shown) [2-hydroxymethyl-cyclooctanol] | excellent noxious-insect repelling effect and durability
9 | CC(C)C(O)C1C(=O)C2(C)CCC1C2(C)C (stereo not shown) [3-(1-hydroxy-2-methylpropyl)-camphor] | excellent noxious-insect repelling effect and durability
10 | CC(C)C1CC(C)C(O)C(CO)C1 (stereo not shown) [2-hydroxymethyl-4-isopropyl-6-methyl-cyclohexanol] | excellent noxious-insect repelling effect and durability
11 | CC(O)C1C2CCC(C)(C1O)C2(C)C (stereo not shown) [3-(1-hydroxyethyl)-borneol] | excellent noxious-insect repelling effect and durability
12 | CC(O)C1C(=O)C2(C)CCC1C2(C)C (stereo not shown) [3-(1-hydroxyethyl)-camphor] | excellent noxious-insect repelling effect and durability
13 | CCCCCCCCCCCC1(CO)CCCCC1O (stereo not shown) [2-hydroxymethyl-2-undecyl-cyclohexanol] | excellent noxious-insect repelling effect and durability
14 | CCC(O)C1C2CCC(C)(C1O)C2(C)C (stereo not shown) [3-(1-hydroxypropyl)-borneol] | excellent noxious-insect repelling effect and durability
15 | CCCCCCCCC1(CO)CCCCC1O (stereo not shown) [2-hydroxymethyl-2-octyl-cyclohexanol] | excellent noxious-insect repelling effect and durability
16 | O=C1CCCCCCCCCCC1CO (stereo not shown) [2-hydroxymethyl-cyclododecanone] | excellent noxious-insect repelling effect and durability
17 | p-menthane-2-ethyl-3,8-diol | excellent noxious-insect repelling effect and durability
18 | CCC1(CO)CCCCC1O (stereo not shown) [2-hydroxymethyl-2-ethyl-cyclohexanol] | excellent noxious-insect repelling effect and durability
19 | CC(C)C1(CO)CCCCC1O (stereo not shown) [2-hydroxymethyl-2-isopropyl-cyclohexanol] | excellent noxious-insect repelling effect and durability
20 | CC(O)C1CCCCCC1O (stereo not shown) [2-(1-hydroxyethyl)-cycloheptanol] | excellent noxious-insect repelling effect and durability
21 | CCC1CC(=O)C(CO)C1 (stereo not shown) [2-hydroxymethyl-4-ethyl-cyclopentanone] | excellent noxious-insect repelling effect and durability
22 | CC1CC(C(C)C)CC(CO)C1=O (stereo not shown) [2-hydroxymethyl-4-isopropyl-6-methyl-cyclohexanone] | excellent noxious-insect repelling effect and durability
23 | CC(O)C1C(O)CCC(C)C1C (stereo not shown) [2-(1-hydroxyethyl)-3,4-dimethyl-cyclohexanol] | excellent noxious-insect repelling effect and durability
24 | CCC(O)C1CC(C)CCC1O (stereo not shown) [2-(1-hydroxypropyl)-4-methyl-cyclohexanol] | excellent noxious-insect repelling effect and durability

Row | Compound | noxious-insect repelling effect and durability (result in words)
25 | CC1CCC(O)C(C(C)O)C1 (stereo not shown) [2-(1-hydroxyethyl)-4-methyl-cyclohexanol] | excellent noxious-insect repelling effect and durability
26 | C=CCC1C(C)CCC(C(C)(C)O)C1O (stereo not shown) [p-menthane-2-(2-propenyl)-3,8-diol] | excellent noxious-insect repelling effect and durability
27 | CCCC(O)C1C(=O)C2(C)CCC1C2(C)C (stereo not shown) [3-(1-hydroxybutyl)-camphor] | excellent noxious-insect repelling effect and durability
28 | CC(O)C1CCCCCCCCC1O (stereo not shown) [2-(1-hydroxyethyl)-cyclodecanol] | excellent noxious-insect repelling effect and durability
29 | CCCCCCCCCCCC1(CO)CCCC1O (stereo not shown) [2-hydroxymethyl-2-undecyl-cyclopentanol] | excellent noxious-insect repelling effect and durability
30 | CC(C)(C)C1CCC(=O)C(CO)C1 (stereo not shown) [2-hydroxymethyl-4-(t-butyl)-cyclohexanone] | excellent noxious-insect repelling effect and durability
31 | CC(C)C1(CO)CCCC1O (stereo not shown) [2-hydroxymethyl-2-isopropyl-cyclopentanol] | excellent noxious-insect repelling effect and durability
32 | CC(C)C(O)C1C2CCC(C)(C1O)C2(C)C (stereo not shown) [3-(1-hydroxy-2-methylpropyl)-borneol] | excellent noxious-insect repelling effect and durability
33 | CCCCCCCCC1(CO)CCCC1O (stereo not shown) [2-hydroxymethyl-2-octyl-cyclopentanol] | excellent noxious-insect repelling effect and durability
34 | CC1CCC(C(C)(C)O)C1=O (stereo not shown) [2-(1-hydroxyisopropyl)-5-methyl-cyclopentanone] | excellent noxious-insect repelling effect and durability
35 | CC(O)C1CCCCCCC1=O (stereo not shown) [2-(1-hydroxyethyl)-cyclooctanone] | excellent noxious-insect repelling effect and durability
36 | CC(C)(C)C1CCC(O)C(CO)C1 (stereo not shown) [2-hydroxymethyl-4-(t-butyl)-cyclohexanol] | excellent noxious-insect repelling effect and durability
37 | CC(C)C1CCC(C)C(CO)C1=O (stereo not shown) [HMMT, 2-hydroxymethyl-menthone] | excellent noxious-insect repelling effect and durability
38 | CCC1(CO)CCCC1O (stereo not shown) [2-hydroxymethyl-2-ethyl-cyclopentanol] | excellent noxious-insect repelling effect and durability
39 | CC(O)C1C(=O)CCC(C)C1C (stereo not shown) [2-(1-hydroxyethyl)-3,4-dimethyl-cyclohexanone] | excellent noxious-insect repelling effect and durability
40 | CCCC(O)C1C2CCC(C)(C1O)C2(C)C (stereo not shown) [3-(1-hydroxybutyl)-borneol] | excellent noxious-insect repelling effect and durability
41 | CC12CCC(C(CO)C1=O)C2(C)C (stereo not shown) [3-(1-hydroxymethyl)-camphor] | excellent noxious-insect repelling effect and durability
42 | O=C1CCCCCCC1CO (stereo not shown) [2-hydroxymethyl-cyclooctanone] | excellent noxious-insect repelling effect and durability
43 | CC1CCC(C(C)(C)O)C(O)C1C (stereo not shown) [MMD, p-menthane-2-methyl-3,8-diol] | excellent noxious-insect repelling effect and durability

From US6372804B1, “Noxious-insect repellent” (Kanebo, Ltd., priority 1991, dated 2002)
